# Biological target: T1, SAE (Homo sapiens, UniProt Q9UBT2)
# T1 construct: endogenous in cells; host or cells: HCT116
# T1 sequence (Q9UBT2 1-640): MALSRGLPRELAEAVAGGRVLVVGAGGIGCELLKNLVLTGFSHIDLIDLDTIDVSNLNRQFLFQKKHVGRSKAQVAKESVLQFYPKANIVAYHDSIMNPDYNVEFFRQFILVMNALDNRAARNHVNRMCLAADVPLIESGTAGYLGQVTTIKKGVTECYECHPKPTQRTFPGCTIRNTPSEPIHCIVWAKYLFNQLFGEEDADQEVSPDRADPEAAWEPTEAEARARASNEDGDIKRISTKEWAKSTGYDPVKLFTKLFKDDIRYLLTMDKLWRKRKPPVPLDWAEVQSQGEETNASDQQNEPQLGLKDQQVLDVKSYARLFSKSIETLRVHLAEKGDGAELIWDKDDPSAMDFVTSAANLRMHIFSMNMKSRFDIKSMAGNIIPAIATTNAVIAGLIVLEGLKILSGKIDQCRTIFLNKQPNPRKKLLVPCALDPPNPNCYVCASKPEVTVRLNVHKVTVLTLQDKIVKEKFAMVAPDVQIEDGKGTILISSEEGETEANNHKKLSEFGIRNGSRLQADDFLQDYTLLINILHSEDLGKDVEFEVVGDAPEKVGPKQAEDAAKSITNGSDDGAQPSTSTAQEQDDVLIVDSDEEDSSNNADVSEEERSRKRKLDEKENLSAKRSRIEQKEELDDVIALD
# T1 sequence (Q9UBE0 1-346): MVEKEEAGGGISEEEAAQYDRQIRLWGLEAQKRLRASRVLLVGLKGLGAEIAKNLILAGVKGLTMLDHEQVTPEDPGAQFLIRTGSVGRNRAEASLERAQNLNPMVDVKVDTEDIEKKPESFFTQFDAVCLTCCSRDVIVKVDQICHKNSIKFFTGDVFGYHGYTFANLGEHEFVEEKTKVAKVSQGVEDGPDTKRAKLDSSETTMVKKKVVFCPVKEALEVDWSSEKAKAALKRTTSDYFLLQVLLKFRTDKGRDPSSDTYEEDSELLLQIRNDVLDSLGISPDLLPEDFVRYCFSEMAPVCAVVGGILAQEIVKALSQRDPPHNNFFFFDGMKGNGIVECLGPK
# Test: SUMO IF: in vitro inhibitory activity assay against SAE in HCT116 cells (SUMO-2/3 immunofluorescence)
# Format: cell-based
# Details: class symbols, 6 h at 37° C.
# Procedure, shortened: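 HCT116 cells were treated with compound for 6 h at 37 °C, then PFA-fixed, Triton-permeabilised and BSA-blocked. They were stained overnight at 4 °C with anti-SUMO-2/3 (18H8) rabbit mAb (1:400), then with FITC anti-rabbit IgG (1:300). Fluorescence versus DMSO gave inhibition rate and IC50.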
row,SMILES,IC50
1,N#Cc1ccc2c(c1)[C@]1(CCc3sc(C(=O)c4cncnc4N[C@H]4C[C@H](O)[C@@H](COS(N)(=O)=O)[C@@H]4F)cc31)NCC2 [Compound 137],> 200 nM
2,COc1ccc2c(c1)C1(CCc3sc(C(=O)c4cncnc4N[C@H]4C[C@H](O)[C@@H](COS(N)(=O)=O)[C@@H]4F)cc31)NCC2 (stereo partly drawn) [Compound 150],> 200 nM
3,NS(=O)(=O)OC[C@H]1[C@H](F)[C@@H](Nc2ncncc2C(=O)c2cc3c(s2)C(F)(F)C[C@@]32NCCc3ccc(Cl)cc32)C[C@@H]1O [Compound 328],> 200 nM
4,NS(=O)(=O)OC[C@H]1[C@H](F)[C@@H](Nc2ncncc2C(=O)c2cc3c(s2)CCCC32NCCc3cc(F)c(F)cc32)C[C@@H]1O (stereo partly drawn) [Compound 110],50 to 200 nM
5,NS(=O)(=O)OC[C@H]1[C@H](F)[C@@H](Nc2ncncc2C(=O)c2cc3c(s2)C=C[C@]32OCCc3ccc(Cl)cc32)C[C@@H]1O [Compound 761],≤ 50 nM
6,Cc1sc(C(=O)c2cncnc2N[C@H]2C[C@H](O)[C@@H](COS(N)(=O)=O)[C@@H]2F)cc1C1NCCc2cc(Cl)ncc21 (stereo partly drawn) [Compound 254],50 to 200 nM
7,Cc1sc(C(=O)c2cncnc2N[C@H]2C[C@H](O)[C@@H](COS(N)(=O)=O)[C@@H]2F)cc1C1NCCc2cc(C#N)c(Cl)cc21 (stereo partly drawn) [Compound 249],50 to 200 nM
8,NS(=O)(=O)OC[C@H]1[C@H](F)[C@@H](Nc2ncncc2C(=O)c2cc3c(s2)CCCC32NCCc3cc(Cl)c(F)cc32)C[C@@H]1O (stereo partly drawn) [Compound 117],50 to 200 nM
9,Cc1sc(C(=O)c2cncnc2N[C@H]2C[C@H](O)[C@@H](CCS(N)(=O)=O)[C@@H]2F)cc1[C@H]1NCCc2ccc(Cl)cc21 [Compound 992],> 200 nM
10,Cc1sc(C(=O)c2cncnc2N[C@H]2C[C@H](O)[C@@H](COS(N)(=O)=O)[C@@H]2F)cc1C1OCc2ccc(Cl)cc21 (stereo partly drawn) [Compound 256],> 200 nM
11,CC1=CC2(NCCc3ccc(Cl)cc32)c2cc(C(=O)c3cncnc3N[C@H]3C[C@H](O)[C@@H](COS(N)(=O)=O)[C@@H]3F)sc21 (stereo partly drawn) [Compound 324],50 to 200 nM
12,NS(=O)(=O)OC[C@H]1[C@H](F)[C@@H](Nc2ncncc2C(=O)c2cc3c(s2)CCC[C@]32NC(=O)Cc3ccc(Cl)cc32)C[C@@H]1O [Compound 629],> 200 nM
13,CC1(C)CN[C@@]2(C=Cc3sc(C(=O)c4cncnc4N[C@H]4C[C@H](O)[C@@H](COS(N)(=O)=O)[C@@H]4F)cc32)c2cc(Cl)ccc21 [Compound 1060],> 200 nM
14,CC1CN[C@]2(C=Cc3sc(C(=O)c4cncnc4N[C@H]4C[C@H](O)[C@@H](COS(N)(=O)=O)[C@@H]4F)cc32)c2cc(Cl)ccc21 (stereo partly drawn) [Compound 1055],≤ 50 nM
15,Cc1sc(C(=O)c2cncnc2N[C@H]2C[C@H](O)[C@@H](COS(N)(=O)=O)[C@@H]2F)cc1C1OCCc2ccc(Cl)cc21 (stereo partly drawn) [Compound 987],50 to 200 nM
16,Cc1sc(C(=O)c2cncnc2N[C@H]2C[C@H](O)[C@@H](COS(N)(=O)=O)[C@@H]2F)cc1C1NCc2ccc(Cl)cc21 (stereo partly drawn) [Compound 257],> 200 nM
17,Cc1sc(C(=O)c2cncnc2N[C@H]2C[C@H](O)[C@@H](COS(N)(=O)=O)[C@@H]2F)cc1C1NCCc2ccncc21 (stereo partly drawn) [Compound 253],50 to 200 nM
18,NS(=O)(=O)OC[C@H]1[C@H](F)[C@@H](Nc2ncncc2C(=O)c2cc3c(s2)COC[C@@]32NCCc3cc(Cl)c(Cl)cc32)C[C@@H]1O [Compound 562],> 200 nM
19,NS(=O)(=O)OC[C@H]1[C@H](F)[C@@H](Nc2ncncc2C(=O)c2cc3c(s2)CCC32NCC3(CC3)c3ccc(Cl)cc32)C[C@@H]1O (stereo partly drawn) [Compound 165],50 to 200 nM
20,N#Cc1ccc2c(c1)[C@]1(C=Cc3sc(C(=O)c4cncnc4N[C@H]4C[C@H](O)[C@@H](COS(N)(=O)=O)[C@@H]4F)cc31)OCC2 [Compound 763],> 200 nM

row,SMILES,IC50
1,NS(=O)(=O)OC[C@H]1[C@H](F)[C@@H](Nc2ncncc2C(=O)c2cc3c(s2)CCCC32NCCc3cc(F)c(Cl)cc32)C[C@@H]1O (stereo partly drawn) [Compound 111],≤ 50 nM
2,CC(C)N1Cc2sc(C(=O)c3cncnc3N[C@H]3C[C@H](O)[C@@H](COS(N)(=O)=O)[C@@H]3F)cc2C2(C1)OCCc1ccc(F)cc12 (stereo partly drawn) [Compound 732],50 to 200 nM
3,NS(=O)(=O)OC[C@H]1[C@H](F)[C@@H](Nc2ncncc2C(=O)c2cc3c(s2)CSCC32NCCc3ccccc32)C[C@@H]1O (stereo partly drawn) [Compound 294],> 200 nM
4,CCc1sc(C(=O)c2cncnc2N[C@H]2C[C@H](O)[C@@H](COS(N)(=O)=O)[C@@H]2F)cc1C1NCCc2ccc(Cl)cc21 (stereo partly drawn) [Compound 260],50 to 200 nM
5,Cc1sc(C(=O)c2cncnc2N[C@H]2C[C@H](O)[C@@H](COS(N)(=O)=O)[C@@H]2F)cc1C1(C)NCCc2ccc(Cl)cc21 (stereo partly drawn) [Compound 270],50 to 200 nM
6,NS(=O)(=O)OC[C@H]1[C@H](F)[C@@H](Nc2ncncc2C(=O)c2cc3c(s2)CC[C@]32NCCc3ccncc32)C[C@@H]1O [Compound 699],50 to 200 nM
7,NS(=O)(=O)OC[C@H]1[C@H](F)[C@@H](Nc2ncncc2C(=O)c2cc3c(s2)CCCC32OCCc3ccc(Cl)cc32)C[C@@H]1O (stereo partly drawn) [Compound 126],≤ 50 nM
8,NS(=O)(=O)CC[C@H]1[C@H](F)[C@@H](Nc2ncncc2C(=O)c2cc3c(s2)CCC[C@]32NCCc3ccc(Cl)cc32)C[C@@H]1O [Compound 638],50 to 200 nM
9,CC1(C)CN[C@]2(C=Cc3sc(C(=O)c4cncnc4N[C@H]4C[C@H](O)[C@@H](COS(N)(=O)=O)[C@@H]4F)cc32)c2cc(Cl)ccc21 [Compound 1061],50 to 200 nM
10,NS(=O)(=O)OC[C@H]1[C@H](F)[C@@H](Nc2ncncc2C(=O)c2cc3c(s2)CSC[C@]32NCCc3cnc(Cl)cc32)C[C@@H]1O [Compound 608],≤ 50 nM
11,NS(=O)(=O)OC[C@H]1[C@H](F)[C@@H](Nc2ncncc2C(=O)c2cc3c(s2)C=CC32NCCc3ccc(Cl)cc32)C[C@@H]1O (stereo partly drawn) [Compound 162],≤ 50 nM
12,CC(C)N1Cc2sc(C(=O)c3cncnc3N[C@H]3C[C@H](O)[C@@H](COS(N)(=O)=O)[C@@H]3F)cc2[C@@]2(C1)OCCc1ccc(F)cc12 [Compound 733],> 200 nM
13,CC1(C)Cc2ccc(Cl)cc2C2(CCCc3sc(C(=O)c4cncnc4N[C@H]4C[C@H](O)[C@@H](COS(N)(=O)=O)[C@@H]4F)cc32)N1 (stereo partly drawn) [Compound 1029],50 to 200 nM
14,NS(=O)(=O)OC[C@H]1[C@H](F)[C@@H](Nc2ncncc2C(=O)c2cc3c(s2)CN(C2CC2)CC32OCCc3ccc(Cl)cc32)C[C@@H]1O (stereo partly drawn) [Compound 741],50 to 200 nM
15,NS(=O)(=O)OC[C@H]1[C@H](F)[C@@H](Nc2ncncc2C(=O)c2cc3c(s2)CCC[C@]32OCCc3ccccc32)C[C@@H]1O [Compound 710],50 to 200 nM
16,CC(C)N1Cc2sc(C(=O)c3cncnc3N[C@H]3C[C@H](O)[C@@H](COS(N)(=O)=O)[C@@H]3F)cc2C2(C1)NCCc1ccc(Cl)cc12 (stereo partly drawn) [Compound 648],≤ 50 nM
17,NS(=O)(=O)OC[C@H]1[C@H](F)[C@@H](Nc2ncncc2C(=O)c2cc3c(s2)COC[C@@]32NCCc3cc(F)c(Cl)cc32)C[C@@H]1O [Compound 571],> 200 nM
18,CN1CCc2ccc(Cl)cc2[C@]12CCCc1sc(C(=O)c3cncnc3N[C@H]3C[C@H](O)[C@@H](COS(N)(=O)=O)[C@@H]3F)cc12 [Compound 595],> 200 nM
19,Cc1sc(C(=O)c2cncnc2N[C@H]2C[C@H](O)[C@@H](COS(N)(=O)=O)[C@@H]2F)cc1[C@@H]1NCCc2ccccc21 [Compound 230],50 to 200 nM
20,NS(=O)(=O)OC[C@H]1[C@H](F)[C@@H](Nc2ncncc2C(=O)c2cc3c(s2)C(F)=C[C@@]32NCCc3ccc(Cl)cc32)C[C@@H]1O [Compound 322],> 200 nM

# Same assay, conditions: numeric values, 6 h at 37° C.
row,SMILES,IC50
1,NS(=O)(=O)OC[C@H]1[C@H](F)[C@@H](Nc2ncncc2C(=O)c2cc3c(s2)CCC[C@@]32NCCc3ccc(F)cc32)C[C@@H]1O [Compound 92],> 1000 nM
2,CC(C)N1Cc2sc(C(=O)c3cncnc3N[C@H]3C[C@H](O)[C@@H](COS(N)(=O)=O)[C@@H]3F)cc2[C@@]2(C1)NCCc1ccc(Cl)cc12 [Compound 649],> 1000 nM
3,[2H]C1([2H])Cc2ccc(Cl)cc2[C@]2(CCCc3sc(C(=O)c4cncnc4N[C@H]4C[C@H](O)[C@@H](COS(N)(=O)=O)[C@@H]4F)cc32)N1 [Compound 661],> 1000 nM
4,CN1Cc2sc(C(=O)c3cncnc3N[C@H]3C[C@H](O)[C@@H](COS(N)(=O)=O)[C@@H]3F)cc2[C@@]2(C1)NCCc1ccc(Cl)cc12 [Compound 577],> 1000 nM
5,NS(=O)(=O)OC[C@H]1[C@H](F)[C@@H](Nc2ncncc2C(=O)c2cc3c(s2)CN(C2CC2)C[C@@]32NCCc3ccc(Cl)cc32)C[C@@H]1O [Compound 580],> 1000 nM

# Reference: patent publication US20260297109A1, “COMPOUNDS AS SUMO ACTIVATING ENZYME INHIBITORS” (WIGEN BIOMEDICINE TECHNOLOGY (SHANGHAI) CO., LTD., priority 2022, published 2026)
